Reference: article PMC3756011, “Evaluation of Memory Enhancing Clinically Available Standardized Extract of Bacopa monniera on P-Glycoprotein and Cytochrome P450 3A in Sprague-Dawley Rats” (PLoS ONE, 2013)

Assays:
[1] = 2 hours after digoxin 0.2 mg/kg oral, BM pretreated vs vehicle
[2] = Oral pharmacokinetics of digoxin with and without BM pre-treatment; format: in vivo, male Sprague-Dawley rat; conditions: for AUC(0-inf) / CL/F / MRT / Vd/F / half-life / Cmax: male, Sprague-Dawley, rat, plasma, po, 0.2 mg/kg
From the text: Rats were divided in two groups (total 40 rats; 10 rats each group) for both probe drugs viz. control and BM pre-treated group.
Pharmacokinetic parameters of probe drugs in plasma were derived from plasma concentration-time profile of probe drugs by Non-Compartmental analysis using WinNonlin Ver 5.1 (Pharsight Corporation, Mountain Veiw, CA).

[3] = Oral pharmacokinetics of carbamazepine and carbamazepine 10,11-epoxide with and without BM pre-treatment; format: in vivo, male Sprague-Dawley rat; conditions: for Cmax / AUC(0-∞) / MRT / CL/F / AUC(0-inf): Mean ± SD
Description: Samples were vigorously vortexed for five minutes and centrifuged at 12,000 rpm for 20 minutes at 4°C. Supernatant thus obtained were analysed using HPLC-UV method. […] Column efﬂuent was monitored at 286 nm. The mobile phase was a mixture of 10 mM ammonium acetate (pH 7.4) and acetonitrile (65∶35). Chromatography was performed at a ﬂow rate of 1.0 ml/min. Pharmacokinetic parameters of probe drugs in plasma were derived from plasma concentration-time profile of probe drugs by Non-Compartmental analysis using WinNonlin Ver 5.1 (Pharsight Corporation, Mountain Veiw, CA).

[4] = parameters: method as in PMID 15673597; conditions: rat vs human; cited from earlier work
Pgp = system: Pgp; parameters: method as in PMID 11318771; conditions: earlier reports; cited from earlier work
[5] = BM pre-treated compared to vehicle treated rats
[6] = BM pre-treated vs vehicle treated rats, abstract
[7] = BM pretreated rats (31 mg/kg/day 7 days), digoxin 0.2 mg/kg oral
[8] = vehicle pretreated rats, digoxin 0.2 mg/kg oral
[9] = BM pretreated rats (31 mg/kg/day 7 days), carbamazepine 50 mg/kg oral
[10] = vehicle pretreated rats, carbamazepine 50 mg/kg oral
[11] = BM pretreated compared to vehicle pretreated rats

Question: What does the source list for `C[C@H]1O[C@@H](O[C@H]2[C@@H](O)C[C@H](O[C@H]3[C@@H](O)C[C@H](O[C@H]4CC[C@@]5(C)[C@H](CC[C@@H]6[C@@H]5C[C@@H](O)[C@]5(C)[C@@H](C7=CC(=O)OC7)CC[C@]65O)C4)O[C@@H]3C)O[C@@H]2C)C[C@H](O)[C@@H]1O` [Digoxin, digoxin]?
Answer: increase in tissue digoxin concentration in intestine ([1]; intestine): 1.3 fold; increase in tissue digoxin concentration in kidney ([1]; kidney): 1.3 fold; decrease in CL/F with BM pre-treatment [2, 5]: 27%; increase in AUC with BM pre-treatment [2, 5]: 37%; increase in Cmax with BM pre-treatment [2, 5]: 9%; increase in MRT with BM pre-treatment [2, 5]: 17%; increase in T1/2 with BM pre-treatment [2, 5]: 48%; increase in AUC following BM pre-treatment [2, 6]: 1.3 fold; AUC(0-inf) [2, 7]: 70.71 ± 0.351 ng·h/mL; CL/F [2, 7]: 3.53 mL/h/kg; MRT [2, 7]: 8.88 ± 1.28 h; Vd/F [2, 7]: 0.0221 ± 0.0103 L/kg; half-life [2, 7]: 260 ± 122 min; Cmax ([2]; BM pretreated rats (31 mg/kg/day 7 days), digoxin 0.2 mg/kg oral 24 h after last BM): 5.28 ± 0.205 ng/mL; AUC(0-inf) [2, 8]: 51.5 ± 6.1 ng·h/mL; CL/F [2, 8]: 4.88 mL/h/kg; Cmax [2, 8]: 4.82 ± 0.092 ng/mL; MRT [2, 8]: 7.56 ± 0.0147 h; Vd/F [2, 8]: 0.0208 ± 0.00471 L/kg; half-life [2, 8]: 175 ± 19.3 min

Question: What does the source list for `NC(=O)N1c2ccccc2C2OC2c2ccccc21` (stereo not drawn) [CBZ-E, carbamazepine 10,11-epoxide]?
Answer: Cmax ([3]; BM pretreated rats (31 mg/kg/day 7 days), carbamazepine 50 mg/kg oral 24 h after last BM): 0.819 ± 0.170 µg/mL; AUC(0-∞) [3, 9]: 15.10 ± 7.36 µg·h/mL; MRT [3, 9]: 21.65 ± 7.69 h; AUC(0-∞) [3, 10]: 14.68 ± 2.90 µg·h/mL; CL/F [3, 10]: 0.0552 ± 0.00933 mL/min/kg; Cmax [3, 10]: 1.37 ± 0.011 µg/mL; MRT [3, 10]: 10.05 ± 0.33 h

Question: Which results are given for `NC(=O)N1c2ccccc2C=Cc2ccccc21` [CBZ, carbamazepine]?
Answer: metabolic clearance, rat higher compared to human [4]: 10 fold; Pgp substrate status (Pgp): not a Pgp substrate; increase in AUC following BM pre-treatment [3, 6]: 4 fold; increase in Cmax following BM pre-treatment [3, 6]: 1.8 fold; decrease in CL/F in BM pretreated rats [3, 11]: 3.8 times; increase in mean AUC in BM pretreated rats [3, 11]: 4 times; increase in mean Cmax in BM pretreated rats [3, 11]: 1.8 times; CL/F ([3]; male, Sprague-Dawley, rat, in vivo, po, 50 mg/kg, BM pretreated rats (31 mg/kg/day 7 days), carbamazepine 50 mg/kg oral, read-out: CL/F (converted)): 5.38 mL/min/kg; CL/F ([3]; male, Sprague-Dawley, rat, in vivo, po, 50 mg/kg, vehicle pretreated rats, carbamazepine 50 mg/kg oral, read-out: CL/F (converted)): 20.8 mL/min/kg; Cmax ([3]; male, Sprague-Dawley, rat, plasma, po, 50 mg/kg, BM pretreated rats (31 mg/kg/day 7 days), carbamazepine 50 mg/kg oral 24 h after last BM, read-out: Cmax): 14.4 ± 1.22 µg/mL; AUC(0-inf) ([3]; male, Sprague-Dawley, rat, plasma, po, 50 mg/kg, BM pretreated rats (31 mg/kg/day 7 days), carbamazepine 50 mg/kg oral): 169 ± 65.6 µg·h/mL; MRT ([3]; male, Sprague-Dawley, rat, plasma, po, 50 mg/kg, BM pretreated rats (31 mg/kg/day 7 days), carbamazepine 50 mg/kg oral, read-out: MRT): 10.7 ± 6.57 h; AUC(0-inf) ([3]; male, Sprague-Dawley, rat, plasma, po, 50 mg/kg, vehicle pretreated rats, carbamazepine 50 mg/kg oral): 40.4 ± 3.89 µg·h/mL; Cmax ([3]; male, Sprague-Dawley, rat, plasma, po, 50 mg/kg, vehicle pretreated rats, carbamazepine 50 mg/kg oral, read-out: Cmax): 8.17 ± 1.46 µg/mL; MRT ([3]; male, Sprague-Dawley, rat, plasma, po, 50 mg/kg, vehicle pretreated rats, carbamazepine 50 mg/kg oral, read-out: MRT): 5.46 ± 1.2 h
